Data published in patent US20040191833A1, “Selective activation of cellular activities mediated through a common toll-like receptor” (3M Innovative Properties Company, priority 2003, published 2004).

Columns and labels:
human TLR7 [1] = molecular target: T1, human TLR7 (Homo sapiens, UniProt Q9NYK1); test: TLR7 activation in HEK293 cells (NF-kB-luc luciferase reporter, H-TLR7/H-vector); format: cell-based; conditions: final IRM concentration 10 μM, 16 hours, normalized to the DMSO without compound control
T1 construct: expressed in transfected cells; host or cells: Namalwa cells (ATCC CRL-1432), pCI-neo vector, electroporated, G418 selected, with pIFN-α1-luc reporter
T1 sequence (Q9NYK1 27-1049): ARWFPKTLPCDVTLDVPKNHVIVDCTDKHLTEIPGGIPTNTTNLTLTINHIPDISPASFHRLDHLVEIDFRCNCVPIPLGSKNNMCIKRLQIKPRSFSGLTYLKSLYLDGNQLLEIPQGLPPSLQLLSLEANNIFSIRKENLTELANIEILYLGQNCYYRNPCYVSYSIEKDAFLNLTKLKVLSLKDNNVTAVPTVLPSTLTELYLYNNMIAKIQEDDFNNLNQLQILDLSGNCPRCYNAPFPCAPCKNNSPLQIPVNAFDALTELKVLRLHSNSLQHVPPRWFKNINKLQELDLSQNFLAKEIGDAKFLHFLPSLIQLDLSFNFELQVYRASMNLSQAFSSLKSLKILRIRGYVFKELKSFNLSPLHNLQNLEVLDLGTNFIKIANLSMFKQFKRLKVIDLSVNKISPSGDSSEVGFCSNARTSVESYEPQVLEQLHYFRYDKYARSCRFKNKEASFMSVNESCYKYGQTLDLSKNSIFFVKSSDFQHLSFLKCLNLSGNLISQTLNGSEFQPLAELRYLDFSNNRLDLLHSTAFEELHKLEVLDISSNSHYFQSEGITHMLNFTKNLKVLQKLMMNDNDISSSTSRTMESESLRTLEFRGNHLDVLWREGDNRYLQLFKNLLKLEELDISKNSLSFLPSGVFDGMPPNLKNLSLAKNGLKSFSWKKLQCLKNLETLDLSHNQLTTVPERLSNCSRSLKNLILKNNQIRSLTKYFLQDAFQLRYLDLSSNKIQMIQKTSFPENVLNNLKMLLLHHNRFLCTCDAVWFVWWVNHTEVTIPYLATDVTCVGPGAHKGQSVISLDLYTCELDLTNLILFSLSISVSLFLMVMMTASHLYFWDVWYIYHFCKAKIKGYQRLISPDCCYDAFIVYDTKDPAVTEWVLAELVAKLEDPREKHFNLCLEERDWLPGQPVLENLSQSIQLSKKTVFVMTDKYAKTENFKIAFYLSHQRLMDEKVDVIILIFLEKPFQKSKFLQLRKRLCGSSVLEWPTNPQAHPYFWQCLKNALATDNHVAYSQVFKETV
Experimental: (§1) In one embodiment, exemplified in Example 1, selective modulation of TLR7-mediated NF-κB activation and TLR7-mediated IFN-α1 induction were assayed. NF-κB activation was measured in genetically modified HEK293 cells (H-TLR7) by detecting TLR7-mediated NF-κB-dependent transcription of a luciferase reporter. IFN-α1 induction was measured in genetically modified Namalwa cells (N-TLR7) by detecting TLR-mediated IFN-α1-induced transcription of a luciferase reporter. Results are shown in Table 2 and are expressed as the fold increase in TLR7-mediated luciferase signal—(H-TLR7/H-vector) and (N-TLR7/N-vector), respectively—normalized to a control in which the cells were treated with vehicle that contained no IRM compound. In this assay, a compound was considered to induce the TLR7-mediated cellular activity if the compound generated at least a two-fold increase in the luciferase signal compared to the vector control.
HEK293 medium was prepared from 90% Minimum Essential Medium (MEM) with 2 mM L-glutamine and Earle's Balanced Salt Solution (Invitrogen Corp., Rockville, Md.) adjusted to contain 1.5 g/L sodium bicarbonate, 0.1 mM non-essential amino acids, and 1.0 mM sodium pyruvate; 10% heat-inactivated fetal calf serum. HEK293 cells were cultured by incubating cells in HEK293 medium overnight at 37° C, 8% CO2.
Twenty-four hours before transfection, HEK293 cells were adhered to a 10 cm dish (Corning 430167, Corning Inc., Corning, N.Y.) at 37° C., 8% CO2. The cells were co-transfected with (1) pIRES (BD Biosciences Clontech, Palo Alto, Calif.) either (a) unmodified (H-vector), or (b) containing an expressible human TLR7 gene (H-TLR7), and (2) NF-kB-luc reporter (Stratagene, La Jolla, Calif.) in a 10:1 ratio with Fugene 6 transfection reagent (Roche Diagnostics Corp., Indianapolis, Ind.) following the manufacturer's instructions. The plates were incubated for 24 hours following transfection and then selected in G-418 (400 μg/mL) for two weeks. The G-418-resistant cells containing either the expressible TLR7 gene or the empty vector were expanded in HEK293 medium supplemented with G-418 for stimulation experiments.
The transfected cells were plated in white opaque 96 well plates (Costar 3917, Corning Inc., Corning, N.Y.) at a concentration of 5×10^4 cells per well in 100 μL of HEK293 media and incubated at 37° C., 8% CO2 for 4 hours. The cells were stimulated with 1 μL of IRM compounds at 1 mM in DMSO (final IRM concentration of 10 μM) or 1 μL DMSO as a control. The plates were then incubated an additional 16 hours at 37° C., 5% CO2. The luciferase signal was read using the LucLite kit (Packard Instrument Co., Meriden, Conn.). Luminescence was measured on an LMAX luminometer (Molecular Devices Corp., Sunnyvale, Calif.).
(§2) The data are expressed as fold increase in TLR7-mediated luciferase signal—(H-TLR7/H-vector) and (N-TLR7/N-vector), respectively—normalized to the DMSO without compound control.

human TLR7 [2] = molecular target: T1, human TLR7; test: TLR7 activation in Namalwa cells (IFN-α1 promoter luciferase reporter, N-TLR7/N-vector); format: cell-based; conditions: final IRM concentration 10 μM, 18 hours, normalized to the DMSO without compound control
Experimental: as §1
Unless otherwise indicated, all incubations were performed at 37° C. with 5% CO2 at 98% humidity.
Culture medium was prepared from complete RPMI 1640 medium (BioSource International, Inc., Camarillo, Calif.). Fetal bovine serum (Atlas Biologicals, Inc., Ft. Collins, Colo.) was added to a final concentration of 7.5% (vol/vol); L-glutamine (BioSource International, Inc.) was added to 5 mM; and sodium pyruvate (BioSource International, Inc.) was added to 1 mM.
Namalwa cells were grown by incubation in culture medium overnight. Cells were harvested by centrifugation in a tabletop centrifuge (1200 RPM for 5 minutes), and then resuspended in phosphate buffered sucrose to a concentration of 1.3×10^7 cells/mL.
For each transfection, a 750 μL aliquot of the cell suspension was placed in an electroporation cuvette with 4 mm gaps. Each aliquot received transfection DNA: 10 μg of pGL3-Enhancing vector (Promega Corp., Madison, Wis.) containing the human IFN-α1 promoter cloned into the BglII site (pIFN-α1-luc), and 10 μg of pCI-neo mammalian expression vector (Promega Corp.) either (1) unmodified (N-vector) or (2) containing an expressible human TLR7 gene (N-TLR7). The cell and vector mixtures were incubated at room temperature for 5 minutes. The cells were electroporated using a BioRad Gene Pulser (BioRad Laboratories, Hercules, Calif.) set to at 500 μF capacitance and […], then incubated at room temperature for 5 minutes.
The electroporated cells were suspended in 10 mL of culture medium and incubated overnight. Dead cells and debris were removed after 24 hours using a MACS Dead Cell Removal kit (Miltenyi Biotec, Auburn, Calif.). Cells were resuspended in 10 mL of culture medium and incubated for an additional 24 hours.
Transfected cells were selected by adding G418 (Promega Corp., Madison, Wisc.) to a final concentration of 1 mg/mL and incubating the cells for seven days.
The selected transfected cells were counted and resuspended to a concentration of 1×10^6 cell per mL in culture medium. 100 μl aliquots of cells were placed in the wells of a white-walled, white-bottomed 96-well plate (Corning, Inc. Corning, N.Y.). 1.0 μL of an IRM compound from Table 1 (prepared at 1 mM in 100% DMSO) was added to some cell aliquots so that the final concentration of IRM compound was 10 μM. As a positive control, some cell aliquots were incubated with Sendai virus instead of IRM compound. As a negative control, some cell aliquots were incubated with DMSO without IRM compound. In all cases, the cells were incubated for 18 hours.
The plates were equilibrated to room temperature before 1 volume of reconstituted LucLight Plus (Packard Instruments, Meriden, Conn.) was added to each aliquot of cells. Each well of the plate was read on an LJL Analyst (LJL Biosystems, Inc., Sunnyvale, Calif.) set with a 5 minute dark adapt.
as §2

| Structure (SMILES) | H-TLR7: fold increase in TLR7-mediated luciferase signal (H-TLR7/H-vector), NF-κB-dependent reporter (human TLR7 [1]) | N-TLR7: fold increase in TLR7-mediated luciferase signal (N-TLR7/N-vector), IFN-α1 promoter reporter (human TLR7 [2]) |
| --- | --- | --- |
| Nc1nc2ccccc2c2c1ncn2CCOCCCc1cncnc1 [IRM12, 1-{2-[3-(5-pyrimidinyl)propoxy]ethyl}-1H-imidazo[4,5-c]quinolin-4-amine] | 0.6 fold | 2.6 fold |
| COCCc1nc2c(N)nc3ccccc3c2n1CCCNS(=O)(=O)c1ccccc1 [IRM7, N-{3-[4-amino-2-(2-methoxyethyl)-1H-imidazo[4,5-c]-1-yl]propyl}benzenesulfonamide] | 4.7 fold | 1.6 fold |
| CCCCc1nc2c(N)nc3ccccc3c2n1CCCNC(=O)c1cc2ccccc2cn1 [IRM3, N-[3-(4-amino-2-butyl-1H-imidazo[4,5-c]quinolin-1-yl)propyl]isoquinoline-3-carboxamide] | 4.2 fold | 1.9 fold |
| COCCc1nc2c(N)nc3ccccc3c2n1CCCCCCCCNC(=O)Nc1ccccc1 [IRM2, N-{8-[4-amino-2-(2-methoxyethyl)-1H-imidazo[4,5-c]quinolin-1-yl]octyl}-N′-phenylurea] | 4.1 fold | 1.5 fold |
| CCCCc1nc2c(N)nc3ncccc3c2n1CC(C)C [IRM10, 2-butyl-1-(2-methylpropyl)-1H-imidazo[4,5-c][1,8]naphthyridin-4-amine] | 1.1 fold | 4.4 fold |
| CCOCc1nc2c(N)nc3ccccc3c2n1CCC(C)C [IRM9, 2-ethoxymethyl-1-(3-methylbutyl)-1H-imidazo[4,5-c]quinolin-4-amine] | 0.7 fold | 2.6 fold |

Second part, the molecule after the results:

| H-TLR7: fold increase in TLR7-mediated luciferase signal (H-TLR7/H-vector), NF-κB-dependent reporter (human TLR7 [1]) | N-TLR7: fold increase in TLR7-mediated luciferase signal (N-TLR7/N-vector), IFN-α1 promoter reporter (human TLR7 [2]) | Structure (SMILES) |
| --- | --- | --- |
| 5.5 fold | 2.2 fold | CCOCc1nc2c(N)nc3ccccc3c2n1CC(C)C [IRM22, 2-(ethoxymethyl)-1-(2-methylpropyl)-1H-imidazo[4,5-c]quinolin-4-amine] |
| 9.4 fold | 2.8 fold | CCCCc1nc2c(N)nc3ccccc3c2n1CCCCCS(C)(=O)=O [IRM23, 2-butyl-1-[5-(methylsulfonyl)pentyl]-1H-imidazo[4,5-c]quinolin-4-amine] |
| 0.9 fold | 2.8 fold | Cc1nc2c(N)nc3ccccc3c2n1CCCNC(=O)C1CCCC1 [IRM16, N-[3-(4-amino-2-methyl-1H-imidazo[4,5-c]quinolin-1-yl)propyl]cyclopentanecarboxamide] |
| 0.8 fold | 2.7 fold | COCCOCc1nc2c(N)nc3ccccc3c2n1CCOc1ccccc1 [IRM15, 2-[(2-methoxyethoxy)methyl]-1-(2-phenoxyethyl)-1H-imidazo[4,5-c]quinolin-4-amine] |
| 0.9 fold | 3.3 fold | Cc1nc2c(N)nc3ccccc3c2n1CCOCCNS(C)(=O)=O [IRM19, N-{2-[2-(4-amino-2-methyl-1H-imidazo[4,5-c]-1-yl)ethoxy]ethyl}methanesulfonamide] |
| 0.4 fold | 3.1 fold | Cc1nc2c(N)nc3ccccc3c2n1CCOCCNC(=O)c1ccccc1 [IRM17, N-{2-[2-(4-amino-2-methyl-1H-imidazo[4,5-c]quinolin-1-yl)ethoxy]ethyl}benzamide] |
| 7.9 fold | 3.2 fold | CCC(C)NC(=S)NCCn1c(CCOC)nc2c(N)nc3ccccc3c21 (centres unmarked) [IRM24, N-{2-[4-amino-2-(2-methoxyethyl)-1H-imidazo[4,5-c]quinolin-1-yl]ethyl}-N′-sec-butylthiourea] |
